Measured values as given in ChEMBL document CHEMBL1201862, “PubChem BioAssay data set” (2004).
Calls of active or inactive are those of the source.

Experiments:
[1] = biological target: T1, Microphthalmia-associated transcription factor (Homo sapiens, UniProt O75030); test: reducers of TRPM1 reporter luminescence, concentration series – cell-based, SK-MEL-5, cherry-picked, set 3, MITF inhibitor project, dose response (AID 493073); assay type: functional;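 also: SK-MEL-5 melanoma cells with luciferase driven by the MITF target TRPM1 promoter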
T1 sequence (O75030 whole entry): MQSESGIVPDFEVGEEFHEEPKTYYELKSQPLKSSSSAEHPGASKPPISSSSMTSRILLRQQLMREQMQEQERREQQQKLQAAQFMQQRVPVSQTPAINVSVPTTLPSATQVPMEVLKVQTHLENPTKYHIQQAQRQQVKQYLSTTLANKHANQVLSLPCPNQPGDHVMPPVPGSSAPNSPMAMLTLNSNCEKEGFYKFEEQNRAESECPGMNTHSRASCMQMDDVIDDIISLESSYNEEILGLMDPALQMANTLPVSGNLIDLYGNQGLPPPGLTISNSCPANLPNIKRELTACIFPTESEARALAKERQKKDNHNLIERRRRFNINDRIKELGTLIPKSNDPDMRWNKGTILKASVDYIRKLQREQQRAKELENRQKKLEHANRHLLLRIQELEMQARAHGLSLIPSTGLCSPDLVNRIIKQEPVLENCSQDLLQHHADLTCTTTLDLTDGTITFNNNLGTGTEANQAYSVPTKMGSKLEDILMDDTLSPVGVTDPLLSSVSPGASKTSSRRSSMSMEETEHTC

[2] = viability loss in CEM21 cells – cell-based, CellTiter-Glo luminescence, cherry-picked, cytotoxicity control for viral fusion inhibitor project, dose response (AID 652042); assay type: functional;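 also: potency for signal decrease meaning cytotoxicity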
[3] = blockers of HIV-1 ZM109 envelope-driven cell-cell fusion – HeLa effector, CEM target cells, luciferase, cherry-pick, dose response (AID 652058); assay type: functional, cell-based;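 also: luciferase signal from HIV-1 Env mediated cell-cell fusion of effector and target cells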
[4] = Trypanosoma cruzi growth suppression in host cells – NIH3T3 host cells, beta-gal luminescence, confirmation (AID 2044); assay type: functional, cell-based;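 also: intracellular parasites grown in NIH/3T3 mouse fibroblasts as host cells; luminescent beta-galactosidase reporter signal from transgenic T. cruzi replicating inside host cells; inhibitors lower the luminescence signal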
[5] = HIV-1 AD8 envelope cell-cell fusion blockers – cherry-pick, dose response (AID 652062); assay type: functional, cell-based;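 also: luciferase signal from cell-cell fusion driven by HIV-1 clade B AD8 Env; potency is for inhibitors of fusion seen as a drop in luminescence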
[6] = NIH3T3 cell viability loss – ATP luminescence, mouse fibroblasts, counter-screen, dose response (AID 2010); assay type: functional, cell-based;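 also: cells exposed to compound for about 90 hours before reading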
[7] = biological target: T2, Protein skinhead-1 (Caenorhabditis elegans, UniProt P34707); assay type: functional
T2 sequence (P34707 whole entry): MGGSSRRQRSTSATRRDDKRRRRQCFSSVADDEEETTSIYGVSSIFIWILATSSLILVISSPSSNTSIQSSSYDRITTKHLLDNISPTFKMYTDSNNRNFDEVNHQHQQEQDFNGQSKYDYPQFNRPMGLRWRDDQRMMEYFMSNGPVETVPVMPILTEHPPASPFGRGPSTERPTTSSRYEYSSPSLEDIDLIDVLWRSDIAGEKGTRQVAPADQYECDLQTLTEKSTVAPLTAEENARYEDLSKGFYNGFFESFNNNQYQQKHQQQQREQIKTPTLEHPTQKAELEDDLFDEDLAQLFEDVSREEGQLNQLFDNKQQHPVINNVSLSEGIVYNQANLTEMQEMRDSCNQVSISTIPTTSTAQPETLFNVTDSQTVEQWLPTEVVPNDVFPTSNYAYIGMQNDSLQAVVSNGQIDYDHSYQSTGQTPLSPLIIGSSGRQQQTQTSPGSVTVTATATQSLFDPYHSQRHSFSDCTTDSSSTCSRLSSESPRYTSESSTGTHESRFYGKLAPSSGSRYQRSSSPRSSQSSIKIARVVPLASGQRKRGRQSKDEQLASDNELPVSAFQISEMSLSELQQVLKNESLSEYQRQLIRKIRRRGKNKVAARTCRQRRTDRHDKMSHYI

[8] = activation of miR-122 Renilla sensor silencing – cell-based, Huh7 psiCHECK-miR122, Renilla luciferase, cherry-picked, dose response (AID 651956); assay type: functional;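 also: huh7 hepatoma cells stably carrying a psiCHECK-2 miR-122 sensor plasmid; renilla luciferase signal reporting endogenous miR-122 activity after 48 h compound exposure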
[9] = biological target: T3, DNA repair and recombination protein RAD54-like (Homo sapiens, UniProt Q92698); test: RAD54 Holliday junction migration blockers – biochemical, fluorescence, cherry-picked samples, dose series, confirmation (AID 651657); assay type: functional
T3 sequence (Q92698 whole entry): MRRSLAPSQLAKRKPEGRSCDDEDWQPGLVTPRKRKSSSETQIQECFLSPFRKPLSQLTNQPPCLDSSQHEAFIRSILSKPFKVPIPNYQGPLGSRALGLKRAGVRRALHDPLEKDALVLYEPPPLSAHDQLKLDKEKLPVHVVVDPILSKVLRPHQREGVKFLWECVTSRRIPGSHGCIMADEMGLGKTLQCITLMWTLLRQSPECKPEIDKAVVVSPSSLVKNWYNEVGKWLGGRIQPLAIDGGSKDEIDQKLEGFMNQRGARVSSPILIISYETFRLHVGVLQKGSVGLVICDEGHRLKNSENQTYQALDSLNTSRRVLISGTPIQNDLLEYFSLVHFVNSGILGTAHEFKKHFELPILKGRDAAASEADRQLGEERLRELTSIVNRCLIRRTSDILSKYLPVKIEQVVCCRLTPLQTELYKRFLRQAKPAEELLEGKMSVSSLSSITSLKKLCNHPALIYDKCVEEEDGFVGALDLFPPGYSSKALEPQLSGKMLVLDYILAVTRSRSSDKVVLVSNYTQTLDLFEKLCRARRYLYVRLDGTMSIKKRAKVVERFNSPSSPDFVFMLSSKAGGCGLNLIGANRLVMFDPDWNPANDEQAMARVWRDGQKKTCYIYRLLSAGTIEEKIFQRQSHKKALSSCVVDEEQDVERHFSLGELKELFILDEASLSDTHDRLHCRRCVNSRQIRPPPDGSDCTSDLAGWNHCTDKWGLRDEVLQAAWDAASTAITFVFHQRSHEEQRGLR

[10] = intracellular Trypanosoma cruzi inhibitors in host cells – cell-based, plate reader, cherry-pick samples, set 3, dose response (AID 651818); assay type: functional;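 also: compounds incubated with infected cells for about four days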
[11] = biological target: Disintegrin and metalloproteinase domain-containing protein 17 (Homo sapiens, UniProt P78536); test: exosite inhibitors of ADAM17, dose response, biochemical (AID 743260)
Chain of Disintegrin and metalloproteinase domain-containing protein 17 (P78536 whole entry, the tested form may be a part): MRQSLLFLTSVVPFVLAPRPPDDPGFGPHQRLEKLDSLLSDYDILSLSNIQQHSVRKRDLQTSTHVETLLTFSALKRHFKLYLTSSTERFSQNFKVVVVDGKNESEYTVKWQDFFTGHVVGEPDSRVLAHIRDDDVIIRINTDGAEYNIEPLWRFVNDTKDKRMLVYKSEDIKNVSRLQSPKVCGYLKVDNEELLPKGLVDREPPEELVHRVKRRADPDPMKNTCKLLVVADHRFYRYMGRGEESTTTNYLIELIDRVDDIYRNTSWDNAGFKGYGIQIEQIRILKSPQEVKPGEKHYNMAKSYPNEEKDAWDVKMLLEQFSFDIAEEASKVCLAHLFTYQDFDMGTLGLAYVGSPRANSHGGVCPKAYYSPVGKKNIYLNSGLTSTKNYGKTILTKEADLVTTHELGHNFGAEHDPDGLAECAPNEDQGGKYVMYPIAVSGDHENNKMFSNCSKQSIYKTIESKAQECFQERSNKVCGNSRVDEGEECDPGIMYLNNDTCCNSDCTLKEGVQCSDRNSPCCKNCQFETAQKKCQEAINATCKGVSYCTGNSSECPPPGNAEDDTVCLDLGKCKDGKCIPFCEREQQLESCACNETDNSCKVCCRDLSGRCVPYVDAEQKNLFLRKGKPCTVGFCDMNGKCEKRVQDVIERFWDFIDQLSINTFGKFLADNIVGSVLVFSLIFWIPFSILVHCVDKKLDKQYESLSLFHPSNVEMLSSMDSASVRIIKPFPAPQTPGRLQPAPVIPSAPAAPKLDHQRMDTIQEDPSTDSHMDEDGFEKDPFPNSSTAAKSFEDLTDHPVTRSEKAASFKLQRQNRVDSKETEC

[12] = inhibition of ADAM10 peptide cleavage – biochemical, FRET peptide substrate, recombinant human ADAM10, selectivity assay for ADAM17 exosite inhibitor project, dose response (AID 743259);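 also: ADAM10 enzyme cleaving a FRET peptide substrate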
[13] = viability of PTEN-deleted HCT116 cells – cell-based, HCT116 PTEN knockout, dose response (AID 1047); assay type: functional;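 also: HCT116 colon tumor cells with PTEN knocked out; cells exposed to compound for 60 hours before readout; potency for loss of cell viability measured by luminescence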
[14] = viability of HCT116 lacking mutant beta-catenin – cell-based, human colon tumor, dose response (AID 1045); assay type: functional;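 also: HCT116 colon tumor cells with beta catenin knocked out; cells exposed to compound for 60 hours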
[15] = biological target: T4, Methionyl-tRNA synthetase, putative (Trypanosoma brucei brucei, UniProt Q38C91); assay type: functional, Trypanosoma brucei brucei strain 927/4 GUTat10.1
T4 sequence (Q38C91 whole entry): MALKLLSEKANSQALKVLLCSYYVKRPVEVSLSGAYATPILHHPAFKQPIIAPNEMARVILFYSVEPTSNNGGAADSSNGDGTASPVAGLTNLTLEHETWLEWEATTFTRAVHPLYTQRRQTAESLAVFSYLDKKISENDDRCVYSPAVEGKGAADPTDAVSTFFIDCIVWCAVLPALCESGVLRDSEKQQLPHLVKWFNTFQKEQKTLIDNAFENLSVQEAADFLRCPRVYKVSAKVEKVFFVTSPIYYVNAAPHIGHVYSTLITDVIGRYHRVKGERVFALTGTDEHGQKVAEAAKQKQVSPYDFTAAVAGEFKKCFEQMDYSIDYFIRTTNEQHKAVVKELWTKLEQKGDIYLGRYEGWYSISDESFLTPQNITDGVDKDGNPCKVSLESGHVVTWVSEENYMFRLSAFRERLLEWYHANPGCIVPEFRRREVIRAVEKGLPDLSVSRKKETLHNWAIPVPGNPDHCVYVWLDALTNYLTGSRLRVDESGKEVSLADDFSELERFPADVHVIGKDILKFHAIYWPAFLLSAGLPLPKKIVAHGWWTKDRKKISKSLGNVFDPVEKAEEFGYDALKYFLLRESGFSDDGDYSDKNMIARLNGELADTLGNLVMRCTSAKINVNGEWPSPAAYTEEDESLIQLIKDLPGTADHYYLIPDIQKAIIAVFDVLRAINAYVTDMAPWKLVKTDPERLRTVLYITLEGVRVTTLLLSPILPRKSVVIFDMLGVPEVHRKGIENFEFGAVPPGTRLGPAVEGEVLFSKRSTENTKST

[16] = biological target: T4, Methionyl-tRNA synthetase, putative; assay type: functional, Trypanosoma brucei brucei strain 927/4 GUTat10.1; remark: listed apart in the source
[17] = Counterscreen for inhibitors of Trypanosoma brucei methionyl tRNA synthetase (MetRS): Luminescence-based cell-based high throughput dose response assay to identify compounds that are cytotoxic to Jurkat human T lymphocyte cells.; assay type: functional
[18] = blockers of HIV-1 envelope-mediated cell-cell fusion – cherry-pick, dose response (AID 652057); assay type: functional, cell-based
[19] = off-target signal loss in HeLa-CEM21 co-culture – HeLa F-luc CTL cells, cherry-picked, counter-screen for HIV-1 Env fusion inhibitor project, dose response (AID 652040); assay type: functional, cell-based;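 also: potency for signal decrease marking cytotoxic or nonspecific inhibition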
[20] = Luminescence Cell-Based Dose Retest to Confirm Inhibitors of Cancer Stem Cells. [Related pubchem assays (depositor defined):AID2717, AID2721]; assay type: functional; details: Homo sapiens
[21] = luciferase reporter signal suppression in cells – H4 neuroglioma cells, luminescence, dose response (AID 1990); assay type: functional, cell-based
[22] = HEK-293T viability loss after treatment – luminescence, T-cell screen hits, cytotoxicity control for TCR NF-kB inhibitor project, dose response (AID 489026); assay type: functional, cell-based;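 also: cells exposed to compound about 14 hours before the viability readout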
[23] = Luminescence Cell-Based Dose Response HTS to Identify Inhibitors of 5'UTR Stem-Loop Driven Prion Protein mRNA Translation in H4 Neuroglioblastoma Cells. [Related pubchem assays: 1827 (Project Summary), 1813 (Primary HTS)]; assay type: functional
[24] = alpha-synuclein stem-loop luciferase translation blockers – H4 neuroglioma cells, luminescence, confirmation (AID 1988); assay type: functional, cell-based
[25] = tested on: H9c2; test: cells; assay type: functional, cell-based; details: Rattus norvegicus, H9c2, Myocardium;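 also: confirmatory concentration-response retest of ultra-high-throughput screening hits for modulation of myocardial damage; cell death induced by hydrogen peroxide oxidative stress; compound pretreatment for 60 min then peroxide exposure for 2 h; potency is for protecting the cells against peroxide damage rather than for killing them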

## CCn1c(/C=C/N(C)c2ccccc2)[n+](CC)c2cc(Cl)ccc21
[1]
  AC50: 6.86 µM (active)
[2]
  AC50: 35.5 µM (active)
[3]
  AC50: 59.3 µM (active)
[4]
  EC50: 0.286 µM (active)
[5]
  AC50: 9.72 µM (active)
[6]
  EC50: 21.5 µM (active)

## Cc1cccc(C)c1N(CC(=O)Nc1cccc(N(C)S(C)(=O)=O)c1)S(C)(=O)=O
[7]
  IC50: > 100 µM (inactive)

## C[C@@H]1CN([C@@H](C)CO)S(=O)(=O)c2ccc(/C=C/c3ccccc3)cc2O[C@@H]1CN(C)C(=O)c1cccnc1
[8]
  AC50: 3.93 µM (active)

## COc1ccc(C(=O)Nc2ccc3nc(N4CCN(C)CC4)cc(C)c3c2)c(OC)c1
[9]
  AC50: 32.9 µM (active)

## C[C@@H]1CN([C@H](C)CO)C(=O)c2cccc(NC(=O)c3ccc(-c4nccs4)cc3)c2O[C@@H]1CN(C)Cc1ccc(C(=O)Nc2ccccc2N)cc1
[10]
  AC50: 1.69 µM (active)

## Cc1ccc(/N=C2\C(Cl)=C(O)OC2OC(=O)c2ccc(C)cc2)cc1 (stereo unspecified)
[11]
  IC50: > 69.5 µM (inactive)
[12]
  IC50: > 7.73 µM (active)

## CN(c1ccccc1)c1nc2ccsc2c(=O)s1
[7]
  IC50: > 100 µM (inactive)

## CCCn1c(O)nnc1SCC(=O)c1ccc2c(c1)OCCO2
[7]
  IC50: > 100 µM (inactive)

## c1coc(CNc2c3c(nc4ccccc24)CCC3)c1
[2]
  AC50: 65 µM (active)
[13]
  EC50: 22.5 µM (active)
[4]
  EC50: 2.41 µM (active)
[5]
  AC50: 32.9 µM (active)
[14]
  EC50: 27.1 µM (active)
[6]
  EC50: > 60 µM (not active)

## O=C(NCCCCc1ccccc1)Nc1ccc(F)cc1
[15]
  IC50: 119 µM (inactive)
[16]
  IC50: 44.4 µM (inactive)
[17]
  IC50: 83.4 µM (inactive)

## O=C(OC(C(=O)c1c[nH]c2ccccc12)c1ccccc1)c1cnccn1 (stereo unspecified)
[15]
  IC50: 59.3 µM (inactive)
[16]
  IC50: 32.3 µM (inactive)
[17]
  IC50: 83.3 µM (inactive)

## C[C@@H]1CN([C@H](C)CO)C(=O)c2cc(NC(=O)NC3CCCCC3)ccc2O[C@H]1CN(C)Cc1ccc(Oc2ccccc2)cc1
[10]
  AC50: 6.06 µM (active)

## Cc1noc(C)c1S(=O)(=O)Nc1ccc2c(c1)CC(=O)N([C@H](C)CO)C[C@@H](C)[C@@H](CN(C)Cc1ccc(Oc3ccccc3)cc1)O2
[10]
  AC50: 5.85 µM (active)

## CN(C)S(=O)(=O)c1cccc(NC(=O)c2ccc(-n3cncn3)c([N+](=O)[O-])c2)c1
[15]
  IC50: 9.02 µM (active)
[16]
  IC50: 4.49 µM (active)
[17]
  IC50: 83.3 µM (inactive)

## Cc1cccc(COc2ccccc2C(=O)N(C)CC(=O)Nc2cccc(F)c2)c1
[11]
  IC50: > 69.5 µM (inactive)
[12]
  IC50: 25.5 µM (inactive)

## CCN(CC)S(=O)(=O)c1cc(NC(=O)Cc2ccc(S(=O)(=O)N3CCOCC3)s2)ccc1Cl
[11]
  IC50: > 69.5 µM (inactive)
[12]
  IC50: 11.4 µM (inactive)

## CC(C)C[C@H](CO)N(Cc1ccccc1)S(=O)(=O)N(Cc1ccccc1)[C@@H](CO)CC(C)C
[18]
  AC50: 2.8 µM (active)
[19]
  AC50: 12.4 µM (active)
[2]
  AC50: 9.89 µM (active)
[3]
  AC50: 3.38 µM (active)
[5]
  AC50: 8.16 µM (active)
[20]
  AC50: 3.47 µM (active)

## COc1ccc(NC(=O)c2ccc3c(c2)OCO3)cc1Cl
[7]
  IC50: > 100 µM (inactive)

## CCOc1ccccc1N1CC(=O)C(c2nc3ccccc3s2)=C1N
[21]
  EC50: 6.86 µM (inconclusive)
[22]
  IC50: 44.6 µM (inactive)
[23]
  EC50: 10.1 µM (active)
[24]
  EC50: 4.59 µM (active)
[25]
  IC50: > 79 µM (inactive)

## CC(CCCN1CCCC1)Nc1ccnc2cc(Cl)ccc12 (stereo unspecified) [Chloroquine-pyrolidinyl]
[9]
  AC50: 35.7 µM (active)

## COc1ccc(S(=O)(=O)N(C)C[C@H]2Oc3c(NC(=O)Nc4ccc(C(F)(F)F)cc4)cccc3C(=O)N([C@@H](C)CO)C[C@@H]2C)cc1
[10]
  AC50: 5.69 µM (active)

## O=C(NC1CCCCN(Cc2cccc(Cl)c2)C1=O)c1ccc(COc2ccccc2)cc1 (stereo unspecified)
[11]
  IC50: > 69.5 µM (inactive)
[12]
  IC50: 20.7 µM (inactive)
